Values joined by “and” are separate entries in the source; they are usually repeats but may differ in a detail not shown here. Equal entries are not always repeated.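 Growth conditions: 96-well plates. Treatment: test compound, 48 hours, 5 concentrations. Analysis: linear interpolation between bracketing concentrations; unreached endpoints set to highest concentration. Here, GI50 denotes the concentration required for 50% inhibition of growth. TGI: concentration producing complete growth inhibition.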
What was measured:
Assay in all cases: NCI anticancer screen, dose series, 48 h
SF-268 CNS = test system: SF-268 CNS
HOP-62 NSCLC = test system: HOP-62 NSCLC
UACC-62 melanoma = test system: UACC-62 melanoma
786-0 renal = test system: 786-0 renal
M14 melanoma = test system: M14 melanoma
NCI-H522 lung = test system: NCI-H522 lung
OVCAR-3 ovarian = test system: OVCAR-3 ovarian
HT29 colon = test system: HT29 colon
MOLT-4 leukemia = test system: MOLT-4 leukemia
MDA-MB-231 breast = test system: MDA-MB-231 breast

Row | Structure (SMILES) | TGI (SF-268 CNS) [µM] | TGI (HOP-62 NSCLC) [µM] | TGI (UACC-62 melanoma) [µM] | TGI (786-0 renal) [µM] | TGI (M14 melanoma) [µM] | TGI (NCI-H522 lung) [µM] | TGI (OVCAR-3 ovarian) [µM] | TGI (HT29 colon) [µM] | TGI (MOLT-4 leukemia) [µM] | GI50 (HT29 colon) | GI50 (SF-268 CNS) [µM] | GI50 (HOP-62 NSCLC) [µM] | GI50 (786-0 renal) [µM] | GI50 (M14 melanoma) [µM] | GI50 (NCI-H522 lung) [µM] | GI50 (OVCAR-3 ovarian) [µM] | GI50 (MOLT-4 leukemia) [µM] | GI50 (MDA-MB-231 breast) [µM] | TGI (MDA-MB-231 breast) [µM] | GI50 (UACC-62 melanoma) [µM]
1 | Cc1c(/C=C2\CC/C(=C\c3[nH]c(C(=O)OC(C)(C)C)c(C)c3C)C2=O)[nH]c(C(=O)OC(C)(C)C)c1C | > 100 | > 100 | > 100 | > 100 | > 100 | > 100 | > 100 | > 100 | > 100 |  |  |  |  |  |  |  |  |  |  | 
2 | COc1ccc(CNc2cc(OC)cc(OC)c2)cc1 | > 100 | > 100 | > 100 | > 96.2 | > 100 | > 100 | > 100 | > 100 | > 100 | > 73.8 µM and 35 µM |  |  |  |  |  |  |  |  |  | 
3 | COC(=O)OCC1OC(N2C(=O)NC(=O)C(I)C2N=[N+]=[N-])CC1OC(=O)OC (stereo unspecified) | > 100 | > 100 | > 100 | > 100 | > 100 | > 100 | > 100 | > 100 | > 100 |  |  |  |  |  |  |  |  |  |  | 
4 | CC(=O)O[C@]1(C(C)=O)CC[C@H]2[C@@H]3C[C@H](C)C4=CC(=O)C=C[C@]4(C)[C@@]3(F)[C@@H](O)C[C@@]21C | > 100 | > 100 | > 100 | > 100 | > 100 | > 100 | > 100 | > 100 | > 100 |  |  |  |  |  |  |  |  |  |  | 
5 | c1ccc2c(c1)O[As](O[As]1Oc3ccccc3O1)O2 | 12.1 | 14.2 |  | 15.4 | 15.3 | 2.06 | 7.41 | 8.74 | 7.21 | 2.75 µM | 2.47 | 3.62 | 3.66 | 3.18 | 0.548 | 2.35 | 2.45 | 2.11 | 10.7 | 
6 | CCCCCCC1CCC2CCCC(C)N12 (stereo unspecified) | > 100 | > 100 | > 100 | > 100 | 76.9 | > 100 | > 100 | > 10 | 47.1 |  |  |  |  |  |  |  |  |  |  | 
7 | CCCCOC1CC2(c3ccc(OC)cc3)C(=O)c3ccccc3N2O1 (stereo unspecified) | > 100 |  | > 10 | > 100 | > 100 | 81.2 | > 100 |  | 61.5 |  |  |  |  |  |  |  |  |  |  | 
8 | OCC(O)CC[CH2][Sn]([c]1ccccc1)([c]1ccccc1)[c]1ccccc1 (stereo unspecified) |  | 39.1 | 29.8 | 28.2 | 31 | 13.7 | 29.8 | 33.4 |  | 19 µM |  | 18.4 | 14.8 | 14.2 | 4.64 | 16.2 |  |  |  | 16.1
9 | O=c1/c(=C/c2cccc3ccccc23)sc2nc3ccccc3n12 | > 100 | > 100 | > 100 | > 100 | > 100 | > 100 | > 100 | > 100 |  |  |  |  |  |  |  |  |  |  |  | 
10 | CCOC(C)OCC#CCCBr (stereo unspecified) | > 100 | > 100 | > 100 | > 100 | > 100 |  | > 100 | > 100 | > 100 |  |  |  |  |  |  |  |  |  |  | 

— PubChem BioAssay (NCI)
